Source: patent publication US20240156860A1, “METHOD OF TREATING INFECTED AND NONINFECTED BURN WOUNDS” (priority 2021, published 2024)

Key:
Assay type in all cases: cell-based, Pseudomonas aeruginosa
bioluminescent PA Xen41 = assay: Broth based killing assay; conditions: for killing of PA Xen41: 2 mM Na2-EDTA and/or 30 mM NaNO2 with gel (Solosite) 1:100, LB pH 6.5, 48 hours
Procedure: The efficacy of a formulation according to the present disclosure was tested in vitro using an overnight culture of bioluminescent PA Xen41, diluted in LB media (pH 6.5) along with a gel (Solosite®, herein SS) at a 1:100 dilution. Bioluminescent PA was used for both in vitro and in vivo experiments.
(§1) Bioluminescent PA-Xen41 was grown overnight in LB media at 37° C. with shaking. Overnight cultures were diluted 100-fold into fresh LBN (LB-1% KNO3) 6.5 media and 5 ml aliquots were transferred to culture tubes. Final concentrations of 30 mM NaNO2 and/or 2 mM Na2-EDTA were added to each tube. Cells were grown anaerobically at 37° C. mimicking a mature biofilm. Samples were taken daily for 48 hours while the cells were still in the anaerobic chamber. Samples were serially diluted in PBS, pH 7.4, and 10 μl aliquot from each dilution placed on LB agar plates and grown aerobically overnight at 37° C. CFU were enumerated the next morning and converted to CFU/ml after multiplying by the dilution factor.

[1] = tested on: clinical strains of PA isolated from human burn patients; assay: Broth based killing assay on clinical strains; conditions: gel formulation; 2 mM Na2-EDTA and/or 30 mM NaNO2; strains with varying antibiotic sensitivity and resistance
Procedure: The efficacy of the AB569 gel formulation was tested on different clinical strains of PA isolated from human burn patients with varying sensitivity and resistance to antibiotics using a broth based killing assay.
as §1

[2] = tested on: clinical strains of PA isolated from burn wounds; assay: Checkerboard assay for MIC and FIC determination; conditions: for MIC EDTA / MIC NaNO2: LB pH 6.5, 10% SS hydrogel, 24 hours; for FIC NaNO2: NaNO2 in combination with EDTA
Procedure: (§2) The inventors further confirmed the bactericidal activity of AB569 gel against various clinical strains of PA isolated from burn wound patients by synergy measurements using the checkerboard analysis. […] FICI=Fractional inhibitory concentration index. […] is synergistic; 0.5<FICI<1 is weak synergistic.
(§3) 96-well polystyrene plates were filled with 100 μl of LB, pH 6.5 and 10% SS hydrogel (Smith and Nephew, London, UK). Row A was filled with 100 μl of a 4× stock of Na2-EDTA (16 mM) and […] was filled with 4× NaNO2 stock (256 mM), bringing both to a 2× concentration. Two-fold serial dilutions were performed such that a concentration gradient of each was created. Column 12 was filled with media to represent a negative control. An overnight culture of bacteria was adjusted to an OD600 of 0.5 in LB media. This was then diluted 1:1000 into fresh media, which was then added to the checkerboard plate (columns 1-11). This dilution was selected as it harbored ˜5×10^5 CFU/ml. Column 11 was the positive control. Plates were incubated at 37° C. The cell turbidity was determined using a 96 well plate reader after 24 hours inoculation. The threshold used for a positive cutoff to calculate MICs and FICs was 0.001 after blank (media) subtraction.

PAO1 = assay: Checkerboard assay for MIC and FIC determination; conditions: strain PAO1
Procedure: as §2, §3

[3] = LB pH 6.5, 10% SS hydrogel, 24 hours

O=C([O-])CN(CCN(CC(=O)[O-])CC(=O)O)CC(=O)O.[Na+].[Na+] [Na2-EDTA, di-sodium EDTA] was tested, and the “killing of PA Xen41” value (bioluminescent PA Xen41) was “significant killing”, the “killing of clinical strains of PA” value [1] was “efficient killing” and the “MIC EDTA” value ([2]; strain Burn #1-1) was 0.5 ± 0^ mM. The “MIC EDTA” value ([2]; strain Burn #1) was 0.833 ± 0.289 mM, the “MIC EDTA” value ([2]; strain Burn #2-1) was 0.833 ± 0.289 mM and the “MIC EDTA” value ([2]; strain Burn #2) was 0.5 ± 0^ mM. For the same compound, the “MIC EDTA” value ([2]; strain Burn #3-1) was 0.667 ± 0.289 mM, the “MIC EDTA” value ([2]; strain Burn #3) was 0.833 ± 0.289 mM and the “MIC EDTA” value ([2]; strain Burn #4-1) was 0.5 ± 0^ mM. For the same compound, the “MIC EDTA” value ([2]; strain Burn #4) was 0.667 ± 0.289 mM, the “MIC EDTA” value ([2]; strain Burn #5-1) was 0.5 ± 0^ mM and the “MIC EDTA” value ([2]; strain Burn #5) was 0.5 ± 0^ mM. For the same compound, the “MIC EDTA” value ([2]; strain Burn #6-1) was 0.5 ± 0^ mM, the “MIC EDTA” value ([2]; strain Burn #6) was 0.667 ± 0.289 mM and the “MIC EDTA” value ([2]; strain Burn #7-1) was 0.5 ± 0^ mM. The “MIC EDTA” value ([2]; strain Burn #7) was 0.833 ± 0.289 mM, the “MIC EDTA” value ([2]; strain Burn #8-1) was 0.5 ± 0^ mM and the “MIC EDTA” value ([2]; strain Burn #8) was 0.667 ± 0.289 mM. For the same compound, the “MIC EDTA” value ([2]; strain Burn #9-1) was 0.5 ± 0^ mM, the “MIC EDTA” value ([2]; strain Burn #9) was 0.5 ± 0^ mM and the “MIC EDTA” value ([2]; strain Burn #10-1) was 0.416 ± 0.144 mM. The “MIC EDTA” value ([2]; strain Burn #11-1) was 0.667 ± 0.289 mM, the “MIC EDTA” value ([2]; strain Burn #12-1) was 0.5 ± 0^ mM and the “FIC EDTA” value (PAO1; EDTA in combination with NaNO2) was 0.333 ± 0.144 mM. For the same compound, the “MIC EDTA” value (PAO1; [3]) was 0.833 ± 0.289 mM.

With O=N[O-].[Na+] [NaNO2] the “killing of PA Xen41” value (bioluminescent PA Xen41) was “completely killed”, the “killing of PA Xen41” value (bioluminescent PA Xen41; listed as A-NO2^−) was “complete and maintained 48 hours” and the “bioluminescent signals of XEN41-containing plates (IVIS)” value (bioluminescent PA Xen41; 48 hours after treatment) was “elimination of bioluminescent signals”. The “MIC NaNO2” value ([2]; strain Burn #1-1) was 26.667 ± 9.238 mM, the “FIC NaNO2” value ([2]; strain Burn #1-1) was 5.333 ± 2.309 mM and the “MIC NaNO2” value ([2]; strain Burn #1) was 18.667 ± 12.220 mM. For the same compound, the “FIC NaNO2” value ([2]; strain Burn #1) was 4.167 ± 3.752 mM, the “MIC NaNO2” value ([2]; strain Burn #2-1) was 26.667 ± 9.238 mM and the “FIC NaNO2” value ([2]; strain Burn #2-1) was 6.667 ± 2.309 mM. For the same compound, the “MIC NaNO2” value ([2]; strain Burn #2) was 14.667 ± 15.144 mM, the “FIC NaNO2” value ([2]; strain Burn #2) was 7.333 ± 7.572 mM and the “MIC NaNO2” value ([2]; strain Burn #3-1) was 21.333 ± 9.238 mM. For the same compound, the “FIC NaNO2” value ([2]; strain Burn #3-1) was 5.333 ± 2.309 mM, the “MIC NaNO2” value ([2]; strain Burn #3) was 24 ± 13.856 mM and the “FIC NaNO2” value ([2]; strain Burn #3) was 6.667 ± 2.309 mM. The “MIC NaNO2” value ([2]; strain Burn #4-1) was 21.333 ± 9.238 mM, the “FIC NaNO2” value ([2]; strain Burn #4-1) was 9.333 ± 6.110 mM and the “MIC NaNO2” value ([2]; strain Burn #4) was 13.333 ± 4.618 mM. For the same compound, the “FIC NaNO2” value ([2]; strain Burn #4) was 2.75 ± 2.165 mM, the “MIC NaNO2” value ([2]; strain Burn #5-1) was 21.333 ± 9.238 mM and the “FIC NaNO2” value ([2]; strain Burn #5-1) was 2.667 ± 1.155 mM. The “MIC NaNO2” value ([2]; strain Burn #5) was 13.333 ± 4.618 mM, the “FIC NaNO2” value ([2]; strain Burn #5) was 4.667 ± 3.055 mM and the “MIC NaNO2” value ([2]; strain Burn #6-1) was 13.333 ± 4.618 mM. The “FIC NaNO2” value ([2]; strain Burn #6-1) was 2.333 ± 1.523 mM, the “MIC NaNO2” value ([2]; strain Burn #6) was 18.667 ± 12.220 mM and the “FIC NaNO2” value ([2]; strain Burn #6) was 5.333 ± 2.309 mM. For the same compound, the “MIC NaNO2” value ([2]; strain Burn #7-1) was 21.333 ± 9.238 mM, the “FIC NaNO2” value ([2]; strain Burn #7-1) was 6 ± 3.464 mM and the “MIC NaNO2” value ([2]; strain Burn #7) was 24 ± 13.856 mM. The “FIC NaNO2” value ([2]; strain Burn #7) was 6.667 ± 2.309 mM, the “MIC NaNO2” value ([2]; strain Burn #8-1) was 21.333 ± 9.238 mM and the “FIC NaNO2” value ([2]; strain Burn #8-1) was 0.75 ± 0.433 mM. The “MIC NaNO2” value ([2]; strain Burn #8) was 16 ± 0 mM, the “FIC NaNO2” value ([2]; strain Burn #8) was 2.167 ± 1.756 mM and the “MIC NaNO2” value ([2]; strain Burn #9-1) was 21.333 ± 9.238 mM. The “FIC NaNO2” value ([2]; strain Burn #9-1) was 4.666 ± 3.055 mM, the “MIC NaNO2” value ([2]; strain Burn #9) was 13.333 ± 4.618 mM and the “FIC NaNO2” value ([2]; strain Burn #9) was 5.333 ± 2.309 mM. The “MIC NaNO2” value ([2]; strain Burn #10-1) was 16 ± 0 mM, the “FIC NaNO2” value ([2]; strain Burn #10-1) was 4 ± 0 mM and the “MIC NaNO2” value ([2]; strain Burn #11-1) was 32 ± 27.713 mM. For the same compound, the “FIC NaNO2” value ([2]; strain Burn #11-1) was 8 ± 0 mM, the “MIC NaNO2” value ([2]; strain Burn #12-1) was 26.667 ± 9.238 mM and the “FIC NaNO2” value ([2]; strain Burn #12-1) was 6 ± 3.464 mM. The “MIC NaNO2” value (PAO1; [3]) was 18.667 ± 12.220 mM and the “FIC NaNO2” value (PAO1; NaNO2 in combination with EDTA) was 4.083 ± 3.876 mM.
